The values that follow come from US9334229B2, “Hydroxytyrosol derivatives, their method of preparation and use in personal care” (Eastman Chemical Company, priority 2013, dated 2016).

The nature of data set [1]: Control reaction without enzyme (toluene / pH 7 phosphate buffer). The data set is classed as physicochemical. On the procedure:
3,4-Bis(ethoxycarbonyloxy)phenethyl palmitate (100 mg; 0.186 mmol) was dissolved in 2 mL of toluene. […] The mixture was stirred vigorously and periodically analyzed by HPLC. After 24 h, LC analysis indicated 75.4% conversion of Compound 2 to hydroxytyrosol. After 48 h, LC analysis indicated 82.6% conversion of Compound 2 to hydroxytyrosol.

Data set [2] has as its target T1, Novozyme 435 (Candida antarctica lipase B immobilized on an acrylic resin) (Moesziomyces antarcticus, UniProt P41365).
T1 construct: purchased Novozyme 435
The data set is described as follows: Enzymatic hydrolysis with Novozyme 435 in toluene / pH 7 phosphate buffer, conversion to hydroxytyrosol by HPLC. In kind it is in vitro ADME. Particulars: 100 mg compound, 100 mg Novozyme 435, toluene / pH 7 phosphate buffer, LC analysis. On the procedure: 3,4-Bis(ethoxycarbonyloxy)phenethyl palmitate (100 mg; 0.186 mmol) was dissolved in 2 mL of toluene. Novozyme 435 (Candida antarctica lipase B immobilized on an acrylic resin) (100 mg) was added followed by 2 mL of pH 7 phosphate buffer. The mixture was stirred vigorously and periodically analyzed by HPLC. After 24 h, LC analysis indicated 75.4% conversion of Compound 2 to hydroxytyrosol. After 48 h, LC analysis indicated 82.6% conversion of Compound 2 to hydroxytyrosol.
Hydroxytyrosol trihexanoate from Comparative Example 8 (100 mg; 0.223 mmol) was dissolved in 2 mL of toluene. Novozyme 435 (Candida antarctica lipase B immobilized on an acrylic resin)(100 mg) was added followed by 2 mL of pH 7 phosphate buffer. The mixture was stirred vigorously and periodically analyzed by HPLC. After 24 h, LC analysis indicated <1% conversion of hydroxytyrosol trihexanoate to hydroxytyrosol. After 48 h, LC analysis indicated <1% conversion of hydroxytyrosol trihexanoate to hydroxytyrosol.

T1 sequence (P41365 26-342): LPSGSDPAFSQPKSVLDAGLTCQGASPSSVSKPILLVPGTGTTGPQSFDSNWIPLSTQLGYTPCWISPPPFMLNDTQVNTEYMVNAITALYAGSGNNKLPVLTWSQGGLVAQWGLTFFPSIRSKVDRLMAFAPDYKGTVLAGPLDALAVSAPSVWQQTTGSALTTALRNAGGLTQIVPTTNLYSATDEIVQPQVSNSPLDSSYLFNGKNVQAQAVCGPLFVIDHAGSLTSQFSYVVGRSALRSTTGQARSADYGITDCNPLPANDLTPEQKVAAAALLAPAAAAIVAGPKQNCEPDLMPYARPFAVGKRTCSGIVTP

For `CCCCCCCCCCCCCCCC(=O)OCCc1ccc(OC(=O)OCC)c(OC(=O)OCC)c1` [Compound 2, 3,4-Bis(ethoxycarbonyloxy)phenethyl palmitate], in data set [1], the “conversion to hydroxytyrosol in control reaction without enzyme” value was “no conversion”.
As to `CCCCCC(=O)OCCc1ccc(OC(=O)CCCCC)c(OC(=O)CCCCC)c1` [Hydroxytyrosol trihexanoate, Hydroxytyrosol Trihexanoate], the “Enzymatic conversion to hydroxytyrosol” value is given as below 1% in data set [2] (after 24 h); below 1% in data set [2] (after 24 h, listed as hydroxytyrosol trihexanoate); below 1% in data set [2] (after 48 h); below 1% in data set [2] (after 48 h, listed as hydroxytyrosol trihexanoate).
